*1 amine or outer side, *2 acyl side, *3 side chain or, on linkers, in order; H or OH if unused. Where a SMILES comes first, the peptide text is derived from it. Side-chain parts run from the residue outwards. [ ]: non-standard residue; d: D form. The star is where a group is joined. C20 diacid = O=C(O)CCCCCCCCCCCCCCCCCCC(=O)*; γGlu = O=C(O)[C@H](CCC(=O)[*:2])N[*:1]; NMeI = CC[C@H](C)[C@H](NC)C(=O)O; αMeL = CC(C)C[C@](C)(N)C(=O)O; AEEA = NCCOCCOCC(=O)O
Target: T1, CRHR1 receptor (Y79 cells) (Homo sapiens, UniProt P34998)
T1 construct: host or cells: Y79 human retinoblastoma cells
T1 sequence (P34998 24-415): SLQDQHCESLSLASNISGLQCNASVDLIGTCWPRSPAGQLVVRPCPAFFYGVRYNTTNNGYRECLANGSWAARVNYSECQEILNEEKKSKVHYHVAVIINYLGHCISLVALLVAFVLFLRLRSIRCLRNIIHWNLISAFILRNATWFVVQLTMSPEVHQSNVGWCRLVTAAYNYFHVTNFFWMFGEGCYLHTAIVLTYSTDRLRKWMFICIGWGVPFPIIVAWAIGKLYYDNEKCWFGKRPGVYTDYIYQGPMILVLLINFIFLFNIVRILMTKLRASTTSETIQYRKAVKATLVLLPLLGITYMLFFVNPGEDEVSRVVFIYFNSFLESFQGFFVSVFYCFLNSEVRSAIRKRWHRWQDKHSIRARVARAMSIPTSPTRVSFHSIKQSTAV
Assay: Human Y79 cAMP assay (native cell line expressing endogenous CRHR1)
Type: cell-based
Details: human Y79 cells (CRHR1, no detectable CRHR2); mean ± SE
Protocol: Y79 cells, a human retinoblastoma cell line, express a high level of human CRHR1 with no detectable CRHR2. A7r5 cells, a rat aortic smooth muscle cell line, only express CRHR2 receptor with no detectable CRHR1. The rat CRHR2 gene shares 93% homology of nucleotides sequences with human CRHR2 and responds to human UCN2. Therefore, these two native cell lines were used for additional characterization of polypeptide selectivity.
Y79 cells were grown in a suspension culture as recommended by ATCC in the media containing RPMI (Gibco Cat #11875093) and 20% FBS (Gibco dialyzed Cat #26400044). Y79 cells were incubated at 37° C. with 5% CO2. A subcultivation was performed by removing the supernatant after centrifugation and suspending the cell pellet in fresh medium (A subcultivation ratio was 1:5). […]
The amount of intracellular cAMP was quantitated using HTRF technology (Homogeneous Time Resolved Fluorescence; Cisbio) as per vendor instructions. […] The HTRF signal was immediately detected using an Envision plate reader (Perkin-Elmer) to calculate the ratio of fluorescence at 665 to 620 nm. […]
Raw fluorescence data for concentration curves of the peptides in Table 2 and Table 3 were converted to cAMP amount (pmol/well) using a cAMP standard curve generated for each experiment.

EC50: > 1e+07 pM
SMILES: CC[C@H](C)[C@H](NC)C(=O)N[C@H](C(=O)N[C@H](C(=O)N[C@@H](CO)C(=O)N[C@@H](CC(C)C)C(=O)N[C@@H](CC(=O)O)C(=O)N[C@H](C(=O)N1CCC[C@H]1C(=O)N[C@H](C(=O)NCC(=O)N[C@@](C)(CC(C)C)C(=O)N[C@@H](CC(C)C)C(=O)N[C@@H](CCC(N)=O)C(=O)N[C@@H](CCCCN)C(=O)N[C@@H](CC(C)C)C(=O)N[C@@H](CC(C)C)C(=O)N[C@@H](CCC(=O)O)C(=O)N[C@@H](CCC(N)=O)C(=O)N[C@@H](CCC(=O)O)C(=O)N[C@@H](CCCNC(=N)N)C(=O)N[C@@H](C)C(=O)N[C@@H](CCC(=O)O)C(=O)N[C@@H](CCCCN)C(=O)N[C@@H](C)C(=O)N[C@@H](CCCNC(=N)N)C(=O)N[C@@H](CCC(N)=O)C(=O)N[C@@H](CCC(N)=O)C(=O)N[C@@H](C)C(=O)N[C@@H](CCCCNC(=O)COCCOCCNC(=O)COCCOCCNC(=O)CC[C@H](NC(=O)CCCCCCCCCCCCCCCCCCC(=O)O)C(=O)O)C(=O)N[C@@H](CCC(=O)O)C(=O)N[C@@H](C)C(=O)N[C@@H](C)C(=O)N[C@@H](CCC(=O)O)C(=O)N[C@H](C(=O)N[C@@H](CC(C)C)C(=O)N[C@@H](C)C(=O)N[C@@H](CCC(N)=O)C(=O)N[C@H](C(N)=O)C(C)C)[C@@H](C)CC)[C@@H](C)CC)C(C)C)[C@@H](C)O)C(C)C [SEQ ID NO: 50, (NMeI) VTSLDVPIG αMeL LQKLLEQERAEKARQQAK((2-[2-(2-Amino-ethoxy)-ethoxy]-acetyl)2-γE-CO-(CH2)18-CO2H)EAAEILAQV-NH2] (H-[NMeI]VTSLDVPIG[αMeL]LQKLLEQERAEKARQQAK([AEEA-AEEA-γGlu-C20 diacid])EAAEILAQV-NH2)

Source: patent US20250163119A1, “COMPOUNDS FOR THE TREATMENT OF DIABETES OR OBESITY” (Eli Lilly and Company, priority 2023, published 2025)
